From patent publication US20240325760A1, “METHODS FOR DETECTING AND PREVENTING ALZHEIMER'S DISEASE AND MILD COGNITIVE IMPAIRMENT” (RAMOT AT TEL-AVIV UNIVERSITY LTD., priority 2021, published 2024)
Several values for one entry are separate records, joined by “and”; a condition that tells them apart may be missing. Equal values may be shown once. Entries after “also recorded” stand apart in the source; their conditions may differ.

Experiments:
[1] = tested on: cultured hippocampal neurons (hippocampal networks ex vivo); assay: Mean firing rate (MFR) of hippocampal cultures on multi-electrode arrays; type: cell-based, mouse; conditions: for network MFR after isoflurane application: isoflurane 1%, 24 hour
Protocol: Multi-electrode array (MEA). Postnatal hippocampal cultures were plated on MEA plates containing 120 titanium nitride (TiN) electrodes, in addition to 4 internal reference and 4 ground electrodes (Styr et al., 2019). Each electrode has a diameter of 30 μm and electrodes are arranged in a 12×12 grid (sparing 6 electrodes in each corner), spaced 100-200 μm apart on average (Multi Channel Systems, 120MEA200/30iR-Ti). Data acquisition was done in 3-weeks-old cultures using a standard MEA2100-Systems with a hardware filter cut-off of 3.3 kHz and sampling rate of 10 kHz per electrode. Recordings were carried out under constant 37° C. and 5% CO2 levels.
Data analysis: Raw data was filtered, offline, at 200 Hz using a Butterworth high-pass filter. Spikes were then detected, offline, using MC_Rack software (Multi Channel Systems) based on a fixed threshold set to between 5-6 standard deviations from mean. Twenty minutes of each hour (that were previously shown to reliably represent the MFR of the entire hour, were used for analysis to reduce processing time and analyzed using custom-written scripts in MATLAB (Mathworks) as previously described (Slomowitz et al., 2015). Channels with unstable (>30% change of MFR) baseline recordings during 3-4 hours prior to a perturbation were excluded from the analysis.

[2] = tested on: anesthetized APP/PS1 mice; assay: LFP recording of epileptiform high-voltage CA1 spikes under anesthesia; type: in vivo
Protocol: For intracerebroventricular (ICV) ainjections, a small hole was drilled in the skull above the left lateral ventricle (0.7 mm posterior, 1.2 mm lateral to bregma), and a 5 mm guide cannula was slowly inserted into the ventricle and fixed to the skull by dental cement (C&B Metabond, Parkell). The guide cannula was sealed with a 5 mm sterile metal bar to prevent CSF leakage and possible infections. 1-2 weeks after the surgery, the mice received ICV injections using a 10 μl syringe (Hamilton). The mice were injected with 1 μl containing 27 μg of teriflunomide (TERI), dissolved in DMSO or vehicle (1 μl of DMSO) with speed of 0.15 μl/min (Nano Jet stereotaxic syringe pump).
LFP/fEPSP recordings. Small diameter holes were drilled in the skull at the position of the recording and stimulating electrodes. […] Ground electrode was screwed to the skull above the cerebellum. Test stimuli of 50-100 μA were delivered to the SC at 0.06 Hz to verify the proper location of the electrodes and to estimate the stability of the signal. The electrodes were firmly fixed to the skull by dental cement (C&B Metabond, Parkell) and dental acrylic. Operated mice recovered in their home cage for at least a week following electrodes implantation. For evoked field excitatory postsynaptic potential (fEPSP) recordings in CA3-CA1 synapses in awake mice (FIGS. 1F-1G), mice were habituated for a few days to the experimental device that was composed from a running wheel and metal bar in which the mice were head fixed into throughout the experiment with a screw. Following habituation, the mice were head fixed to the experimental device, and CA3-CA1 fEPSP measurements were taken 30 minutes after.
Ca^2+ imaging and LFP recording in anesthetized mice. For Ca^2+ imaging and LFP recording sessions during anesthesia, mice were placed in an induction chamber connected to isoflurane vaporizer (Isotec 5), gas flow rate was turned on to 0.8 LPM (litre per minute) and the vaporizer was set at 5% isoflurane. […] Respiration and heart rate were monitored and analyzed by the physiological monitoring system. […] Temperature was also maintained by the device at 37° C. throughout the procedure.
Detection of pathological spikes in fAD models. High-voltage pathological spikes were detected by setting a threshold of 10 z-scores above and below the mean voltage during the suppression epochs of the recording and accepted only if their peak-to-peak value within 30 ms was greater than 10 z-scores. A dead-time of 50 ms was set to assure the same spike was not counted twice. Subsequently, all spikes were manually inspected and approved.

[3] = tested on: CA1 neuronal populations of WT and APP/PS1 mice; assay: Ca2+ imaging of CA1 population activity under anesthesia; type: in vivo, mouse
APP/PS1 mice = assay: Spatial working memory, delta-maze alternation test after general anesthesia; type: in vivo, mouse; conditions: 4-5-month-old APP/PS1 mice; isoflurane inhalation 1.5%, 3 hour; 10, 20 and 60 sec delays
nRE-CA1 synapses = assay: nRE-CA1 synaptic transmission in APP/PS1 mice expressing hM4D(Gi)-mCherry; type: in vivo, mouse; conditions: data not shown
[4] = tested on: CA3-CA1 synaptic connections in hippocampal slices; assay: Dose-response of TERI on fEPSP amplitude in acute hippocampal slices; type: cell-based, mouse
Protocol: Electrophysiology in slices. Acute hippocampal slices (coronal, 400 μm) were prepared from WT and APP/PS1 mice. Slices were transferred to a submerged recovery chamber at 32° C. containing oxygenated (95% O2 and 5% CO2) artificial cerebrospinal fluid (ACSF) for 1 h before the experiment. The ACSF contained, in mM: NaCl, 125; KCl, 2.5; CaCl2, 1.2; MgCl2, 1.2; NaHCO3, 25; NaH2PO4, 1.25; glucose, 25. fEPSPs were recorded in acute hippocampal slices with a glass pipette containing Tyrode solution (1-2 MΩ) from synapses in the CA1 using a MultiClamp700B amplifier (Molecular Devices). Stimulation of the Shaffer Collateral (SC) pathway was delivered through a glass suction electrode (10-20 μm tip) filled with Tyrode. Data were analyzed using pClamp10 (Molecular Devices).

SMILES: NCC(CC(=O)O)c1ccc(Cl)cc1 (stereo not shown) [baclofen]
- MFR homeostatic response to chronic inactivity ([1]; baclofen 10 μM, WT and APP/PS1 networks, first day of perturbation): homeostatically compensated

SMILES: FC(F)OC(Cl)C(F)(F)F (stereo not shown) [isoflurane]
- epileptiform high-voltage spikes in CA1 ([2]; 4-5 months old APP/PS1 mice under general anesthesia (1.5% isoflurane)): 3.22±0.51 per min
- CA1 activity under anesthesia ([3]; APP/PS1 mice): maintained constant
- suppression of total CA1 activity ([3]; WT mice, deep anesthesia (1.5% isoflurane)): ~87%
- suppression of total CA1 activity ([3]; WT mice, moderate anesthesia (1% isoflurane)): ~57%
- choice accuracy in delta maze following anesthesia (APP/PS1 mice): decrease in choice accuracy
- network MFR after isoflurane application ([1]; APP/PS1 cultures): 112.5±8.7 % of baseline
- network MFR after isoflurane application ([1]; WT cultures): 42.0±0.9 % of baseline

SMILES: NC1=N[C@H](O)[C@H]2[C@H]3O[C@]4(O)O[C@@H]([C@@H](O)[C@@]2(N1)[C@@H]4O)[C@]3(O)CO [TTX, tetrodotoxin]
- rate of epileptiform CA1 spikes vs baseline ([2]; mouse, in vivo): profound decrease; also recorded: reduction

SMILES: C[N+]1([O-])CCN(C2=Nc3cc(Cl)ccc3Nc3ccccc32)CC1 [CNO]
- decrease in the rate of epileptiform CA1 spikes vs vehicle ([2]; i.p. 5 mg/kg, anesthetized APP/PS1 mice expressing hM4D(Gi)-mCherry in nRE-CA1 synapses): ~53%
- nRE-CA1 synaptic transmission (nRE-CA1 synapses): suppressed

SMILES: Cc1cccc(C(C)c2cnc[nH]2)c1C (stereo not shown) [medetomidine]
- CA1 activity under anesthesia ([3]; APP/PS1 mice): much lower level of suppression
- CA1 activity under anesthesia ([3]; WT mice, data not shown): pronounced inhibition of CA1 activity

SMILES: C/C(O)=C(\C#N)C(=O)Nc1ccc(C(F)(F)F)cc1 [TERI, (2Z)-2-cyano-3-hydroxy-N-[4-(trifluoromethyl)phenyl]but-2-enamide]
- reduction in the frequency of high-voltage CA1 spikes vs baseline ([2]; ICV 27 μg in 1 μl, anesthetized APP/PS1 mice): ~50% and 50.7±7.2%
- frequency of high-voltage spikes after TERI ICV injection ([2]; ICV 27 μg in 1 μl, baseline 7.6±1.4 per min, n=9 anesthetized APP/PS1 mice): 3.8±0.95 per min
- negative regulation of MFR set points by TERI ([1]; APP/PS1 networks ex vivo, data not shown): preserved
- IC50 ([4]; Mus musculus, hippocampal slices of APP/PS1 mice): 19.1 µM
- IC50 ([4]; Mus musculus, hippocampal slices of WT mice): 17.6 µM
- IC50 ([4]; hippocampal slices of APP/PS1 mice): 19.2 ± 1 µM

SMILES: COc1ccc(-c2ccc(=N)n(CCCC(=O)O)n2)cc1 [gabazine]
- MFR renormalization following 2 days of gabazine application ([1]; 30 μM, APP/PS1 neurons): disrupted
- population firing rate on gabazine application (acute) ([1]; 30 μM, WT networks): fast and pronounced increase
- MFR following 2 days of gabazine application ([1]; 30 μM, WT neurons): renormalized to the baseline level
